Data as given in publication PMC7016952, “Characterization of the Menin-MLL Interaction as Therapeutic Cancer Target” (Cancers, 2020).
pIC50: −log10 of the molar value.

Assays:
[1] = biological target: CYP 1A2 (Homo sapiens, UniProt P05177); conditions: cited from earlier work
[2] = cited from earlier work
[3] = tested on: MV4;11 xenograft; assay: MV4;11 xenograft efficacy; format: in vivo, mice
Protocol: Tumor cells were injected subcutaneously into the flanks of 6- to 9-week old animals. Efficacy studies in xenograft models were performed at Bayer or EPO GmbH (Berlin-Buch, Germany) using NMRI nu/nu, SCID, BALB/c Nude female mice or SCID male mice (VCaP tumors). All animal studies were conducted in accordance with the animal welfare laws and were approved by the State Office for Health and Social Affairs Berlin (LAGeSo). Experiments were run under the animal license B3600a0007. Compound treatment started at a predefined tumor size or burden or at a predefined day after cell inoculation. […] Subcutaneous tumor volumes were determined by caliper measurement.

[4] = tested on: JMSU-1 cells; assay: RNA-seq differential gene expression, JMSU-1; format: cell-based; conditions: JMSU-1, 5 µM, 48 h
Protocol: (§1) Total RNA was isolated using RNeasy-Plus Mini kit (Qiagen, Hilden, Germany). RNA (1 μg) was reverse transcribed using SuperScript III First-Strand Synthesis SuperMix (Life Technologies) and the generated cDNA was analyzed with commercial primers (Supplementary Materials Table S1) by qRT-PCR using TaqMan Fast Advanced Master Mix (Life Technologies). For the RNA-seq study, ZR-75-1, BT474, PANC-1, MiaPaCa-2, 22RV1, JMSU-1, DLD-1, SW1463, LoVo and G401 cells were treated with 5 µM BAY-155 or DMSO for 48 h prior to RNA extraction. After 48 h of 5 µM BAY-155 or DMSO treatment, MCF7, VCaP and LNCaP cells were stimulated for further 12 h with 0.1 nM of E2 (ß-Estradiol) or 1 nM R1881, respectively. MCF7, VCaP and LNCaP cells were cultured in starvation medium (containing 5 µM BAY-155 or DMSO) 6 h before stimulation. RNA was isolated using RNeasy-Plus Mini kit (Qiagen). The purified RNA was used for library preparation (Illumina, San Diego, CA, USA. TruSeq Stranded mRNA Kit) and the generated libraries were sequenced (Illumina, HiSeq2500 HTv4, SR, dual-indexing, 50 cycles).
RNA-seq reads were aligned to hg38 using STAR aligner. Protein-coding genes with more than 10 reads in more than three samples were used for the analysis (total samples N = 86; genes N = 13,003). […]

[5] = tested on: MEIS1, MNDA and CD11b expression in MV4;11 and MOLM-13 cells; assay: qRT-PCR of hematopoietic differentiation genes; format: cell-based, human; conditions: four days of treatment, in comparison to MI-503
Protocol: as §1

[6] = tested on: MV4;11 cells; assay: Proliferation inhibition, MV4;11; format: cell-based, human; conditions: MV4;11
[7] = tested on: RKO xenograft; assay: RKO xenograft efficacy; format: in vivo, mice
Protocol: (§2) Tumor cells were injected subcutaneously into the flanks of 6- to 9-week old animals. Efficacy studies in xenograft models were performed at Bayer or EPO GmbH (Berlin-Buch, Germany) using NMRI nu/nu, SCID, BALB/c Nude female mice or SCID male mice (VCaP tumors). All animal studies were conducted in accordance with the animal welfare laws and were approved by the State Office for Health and Social Affairs Berlin (LAGeSo). Experiments were run under the animal license B3600a0007. Compound treatment started at a predefined tumor size or burden or at a predefined day after cell inoculation. BAY-155 was administered orally (p.o.) at various doses and regorafenib, tamoxifen and enzalutamide (resuspended in PEG400/H2O 6/4 or PEG400/EtOH 9/1) were used as control treatment for RKO, MCF7 and VCaP xenografts, respectively. Subcutaneous tumor volumes were determined by caliper measurement.

[8] = tested on: KYSE-150 xenograft; assay: KYSE-150 xenograft efficacy; format: in vivo, mice; conditions: 120 mg/kg QD p.o.
Protocol: as §2

[9] = biological target: T1, menin-MLL interaction (Homo sapiens, UniProt O00255); assay: TR-FRET menin-MLL binding assay; conditions: BAY-155 vs MI-503
T1 construct: recombinant full length, His-tagged menin
T1 sequence (O00255 1-610): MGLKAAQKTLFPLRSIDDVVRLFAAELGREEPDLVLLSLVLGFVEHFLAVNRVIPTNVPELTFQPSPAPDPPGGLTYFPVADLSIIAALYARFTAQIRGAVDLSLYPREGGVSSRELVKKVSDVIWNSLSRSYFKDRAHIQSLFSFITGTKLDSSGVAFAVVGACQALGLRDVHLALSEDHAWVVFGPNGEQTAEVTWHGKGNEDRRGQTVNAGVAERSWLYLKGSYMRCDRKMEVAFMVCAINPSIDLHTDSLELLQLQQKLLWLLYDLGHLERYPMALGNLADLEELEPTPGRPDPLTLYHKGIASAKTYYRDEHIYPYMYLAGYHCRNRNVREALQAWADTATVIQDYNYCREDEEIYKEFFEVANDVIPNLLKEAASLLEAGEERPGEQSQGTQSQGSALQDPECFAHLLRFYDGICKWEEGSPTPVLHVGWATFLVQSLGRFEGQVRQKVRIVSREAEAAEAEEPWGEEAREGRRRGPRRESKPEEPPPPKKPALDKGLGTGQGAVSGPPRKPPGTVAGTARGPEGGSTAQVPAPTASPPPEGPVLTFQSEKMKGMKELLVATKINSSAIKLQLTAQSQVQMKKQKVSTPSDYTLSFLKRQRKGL

[10] = tested on: VCaP xenograft; assay: VCaP xenograft efficacy; format: in vivo, mice
Protocol: as §2

[11] = tested on: CYP enzymes; conditions: cited from earlier work
[12] = biological target: CYP 2C9 (Homo sapiens, UniProt P11712); conditions: cited from earlier work
[13] = tested on: MEIS1, MNDA and CD11b expression in MV4;11 and MOLM-13 xenografts; assay: Ex vivo gene expression in MV4;11 and MOLM-13 xenografts; set-up: species or system mice; conditions: 17 (MV4;11) or 11 (MOLM-13) days of treatment
Protocol: as §1
Tumors were harvested, dissociated and total RNA was extracted using the TissueLyser (Qiagen, Hilden, Germany) together with RNeasy-Plus Mini kit according to the manufacturer protocol.

Sequence of CYP 2C9 (P11712 whole entry): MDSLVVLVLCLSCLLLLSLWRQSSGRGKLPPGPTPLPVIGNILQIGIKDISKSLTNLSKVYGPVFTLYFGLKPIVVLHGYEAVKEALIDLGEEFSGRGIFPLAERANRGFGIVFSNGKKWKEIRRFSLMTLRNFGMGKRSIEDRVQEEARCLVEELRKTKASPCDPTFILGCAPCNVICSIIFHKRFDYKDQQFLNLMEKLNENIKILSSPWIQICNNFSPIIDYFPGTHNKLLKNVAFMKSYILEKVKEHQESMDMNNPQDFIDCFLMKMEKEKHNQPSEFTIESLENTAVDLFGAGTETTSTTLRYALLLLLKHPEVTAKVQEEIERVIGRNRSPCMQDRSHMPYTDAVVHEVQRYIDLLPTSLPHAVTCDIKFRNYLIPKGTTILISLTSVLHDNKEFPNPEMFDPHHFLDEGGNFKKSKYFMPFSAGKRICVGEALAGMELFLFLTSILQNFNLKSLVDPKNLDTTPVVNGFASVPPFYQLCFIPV
Sequence of CYP 1A2 (P05177 whole entry): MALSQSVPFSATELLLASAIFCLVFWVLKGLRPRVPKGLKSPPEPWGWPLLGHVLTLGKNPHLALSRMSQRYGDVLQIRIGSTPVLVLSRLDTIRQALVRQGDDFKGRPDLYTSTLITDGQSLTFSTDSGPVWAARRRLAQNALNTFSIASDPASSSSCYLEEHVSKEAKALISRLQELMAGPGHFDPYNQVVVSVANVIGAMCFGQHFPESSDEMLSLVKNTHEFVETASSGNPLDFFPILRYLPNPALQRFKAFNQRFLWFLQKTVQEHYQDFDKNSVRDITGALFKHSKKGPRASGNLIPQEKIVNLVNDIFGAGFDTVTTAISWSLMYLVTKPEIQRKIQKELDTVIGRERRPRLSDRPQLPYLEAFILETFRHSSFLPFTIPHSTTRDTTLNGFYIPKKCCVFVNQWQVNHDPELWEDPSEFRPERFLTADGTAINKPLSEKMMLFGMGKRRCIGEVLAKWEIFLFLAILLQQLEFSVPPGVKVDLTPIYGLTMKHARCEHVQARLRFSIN

Structure (SMILES): Cc1c(CN2CCC3(CC2)CN(c2ncnc4sc(CC(F)(F)F)cc24)C3)ccc2c1cc(C#N)n2CC(N)=O [BAY-155]
- pIC50 [1]: < 4.70
- in vivo CL blood Rat [2]: 18.3 mL/min/kg
- in vivo F Rat [2]: 15.3%
- body weight ([3]; 180 mg/kg 2QD p.o.): no evidence of body weight loss
- tumor volume T/C ([3]; 180 mg/kg 2QD p.o., regression): < 0.02
- tumor weights ([3]; p.o.): clear concentration-dependent trend for reduced tumor weights
- number of differentially expressed genes [4]: 665 genes
- CD11b and MNDA gene expression [5]: up-regulation
- MEIS1 gene expression [5]: stronger expression down-regulation
- fold improved proliferation inhibition vs MI-503 [6]: 2.8 fold
- tumor volume and weight (anti-growth effects) [7]: no significant anti-growth effects
- tumor volume T/C [8]: 0.67
- tumor weight [8]: significant decrease in tumor weight
- fold better inhibitory IC50 compared to MI-503 [9]: 10 fold
- tumor volume and tumor weight [10]: no significant effects
- inhibition of CYP enzymes (in words) [11]: no inhibition
- pIC50 [12]: < 4.70
- MEIS1 expression ex vivo [13]: concentration-dependent and significant down-regulation
- MNDA and CD11b expression ex vivo [13]: up-regulation
